Test results as given in patent US6737383B1, “Herbicidal oxadiazolidines” (priority 1999, dated 2004).

Tests used:
bamyardgrass = experiment: Test B flood test barnyardgrass; assay type: in vivo, Echinochloa crus-galli
Summary of the method: (§1)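 Flood test on plants grown to the 2-leaf stage; treated plants kept in greenhouse twelve to sixteen days, then visually rated against controls on a 0 (no effect) to 10 (complete control) scale.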

morningglory = experiment: Test B pre/postemergence morningglory; assay type: in vivo, Ipomoea hederacea; conditions: for Plant response rating, Morningglory: scale of 0 to 10 where 0 is no effect and 10 is complete control
Summary of the method: (§2)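 Test chemicals in a non-phytotoxic solvent mixture with surfactant were sprayed preemergence onto planted seeds and postemergence onto plants 2 to 18 cm tall (1- to 4-leaf stage). After twelve to sixteen days in a greenhouse, injury was visually rated against untreated controls from 0 (no effect) to 10 (complete control).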

soybean = experiment: Test B pre/postemergence soybean; assay type: in vivo, Glycine max; conditions: for Plant response rating, Soybean: scale of 0 to 10 where 0 is no effect and 10 is complete control
Summary of the method: as §2

velvetleaf = experiment: Test B pre/postemergence velvetleaf; assay type: in vivo, Abutilon theophrasti; conditions: for Plant response rating, Velvetleaf: scale of 0 to 10 where 0 is no effect and 10 is complete control
Summary of the method: as §2

cocklebur = experiment: Test B pre/postemergence cocklebur; assay type: in vivo, Xanthium strumarium
Summary of the method: as §2

surinam grass = experiment: Test B pre/postemergence surinam grass; assay type: in vivo, Brachiaria decumbens
Summary of the method: as §2

duck salad = experiment: Test B flood test duck salad; assay type: in vivo, Heteranthera limosa
Summary of the method: as §1

pigweed = experiment: Test B pre/postemergence pigweed; assay type: in vivo, Amaranthus retroflexus; conditions: for Plant response rating, Redroot pigweed: scale of 0 to 10 where 0 is no effect and 10 is complete control
Summary of the method: as §2

corn = experiment: Test B pre/postemergence corn; assay type: in vivo, Zea mays
Summary of the method: as §2

sugar beet = experiment: Test B pre/postemergence sugar beet; assay type: in vivo, Beta vulgaris; conditions: for Plant response rating, Sugarbeets: scale of 0 to 10 where 0 is no effect and 10 is complete control
Summary of the method: as §2

wild oat = experiment: Test B pre/postemergence wild oat; assay type: in vivo, Avena fatua; conditions: for Plant response rating, Wild oats: scale of 0 to 10 where 0 is no effect and 10 is complete control
Summary of the method: as §2

crabgrass = experiment: Test B pre/postemergence crabgrass; assay type: in vivo, Digitaria sanguinalis
Summary of the method: as §2

wheat = experiment: Test B pre/postemergence wheat; assay type: in vivo, Triticum aestivum; conditions: for Plant response rating, Wheat: scale of 0 to 10 where 0 is no effect and 10 is complete control
Summary of the method: as §2

rice = experiment: Test B flood test rice; assay type: in vivo, Oryza sativa
Summary of the method: as §1

giant foxtail = experiment: Test B pre/postemergence giant foxtail; assay type: in vivo, Setaria faberii
Summary of the method: as §2

blackgrass = experiment: Test B pre/postemergence blackgrass; assay type: in vivo, Alopecurus myosuroides
Summary of the method: as §2

[1] = Rate 62 g/ha, flood test species, Pre-emergence, visual evaluation after twelve to sixteen days
[2] = Rate 125 g/ha, under heading Pre-emergence, flood test species, visual evaluation after twelve to sixteen days
[3] = Rate 250 g/ha, Pre-emergence (flood test species), scale 0 to 10, 0 is no effect, 10 is complete control
[4] = Rate 500 g/ha, Pre-emergence, flood test species, scale 0 to 10 (0 no effect, 10 complete control)
[5] = Postemergence, Rate 250 g/ha, scale 0 to 10
[6] = Preemergence, Rate 250 g/ha, scale 0 to 10, 0 is no effect, 10 is complete control
[7] = Preemergence, Rate 500 g/ha, scale 0 to 10, 0 is no effect, 10 is complete control
[8] = Rate 62 g/ha, Postemergence, scale 0 to 10 (0 no effect, 10 complete control)
[9] = Rate 125 g/ha, Postemergence, scale 0 to 10, 0 is no effect, 10 is complete control
[10] = Postemergence, Rate 500 g/ha, scale of 0 to 10 where 0 is no effect and 10 is complete control
[11] = Preemergence, Rate 62 g/ha, scale of 0 to 10 where 0 is no effect and 10 is complete control
[12] = Preemergence, Rate 125 g/ha, scale of 0 to 10 where 0 is no effect and 10 is complete control

COC(=O)C(C)n1c(=O)on(C(=O)N(c2ccc(F)cc2F)C(C)C)c1=O (stereo not shown) [Compound 463]
Plant response rating, Barnyardgrass (0 to 10 scale, 0 is no effect, 10 is complete control) (bamyardgrass; [1]): 0
Barnyardgrass plant response rating (0 to 10 scale, 0 is no effect, 10 is complete control) (bamyardgrass; [2]): 0
Barnyardgrass plant response rating (bamyardgrass; [3]): 0
Barnyardgrass plant response rating (bamyardgrass; [4]): 0
Morningglory plant response rating (morningglory; [5]): 2
Plant response rating, Morningglory (morningglory; Preemergence, Rate 62 g/ha): 0
Plant response rating, Morningglory (morningglory; Preemergence, Rate 125 g/ha): 0
Morningglory plant response rating (morningglory; [6]): 0
Morningglory plant response rating (morningglory; [7]): 0
Morningglory plant response rating (morningglory; [8]): 0
Morningglory plant response rating (morningglory; [9]): 0
Soybean plant response rating (soybean; [5]): 1
Plant response rating, Soybean (soybean; Preemergence, Rate 62 g/ha): 0
Plant response rating, Soybean (soybean; Preemergence, Rate 125 g/ha): 0
Soybean plant response rating (soybean; [6]): 0
Soybean plant response rating (soybean; [7]): 0
Soybean plant response rating (soybean; [8]): 1
Soybean plant response rating (soybean; [9]): 1
Velvetleaf plant response rating (velvetleaf; [5]): 0
Plant response rating, Velvetleaf (velvetleaf; Preemergence, Rate 62 g/ha): 0
Plant response rating, Velvetleaf (velvetleaf; Preemergence, Rate 125 g/ha): 0
Velvetleaf plant response rating (velvetleaf; [6]): 0
Velvetleaf plant response rating (velvetleaf; [7]): 2
Velvetleaf plant response rating (velvetleaf; [8]): 0
Velvetleaf plant response rating (velvetleaf; [9]): 0
Cocklebur plant response rating (cocklebur; [5]): 0
Cocklebur plant response rating (cocklebur; [10]): 2
Plant response rating, Cocklebur (cocklebur; [11]): 0
Plant response rating, Cocklebur (cocklebur; [12]): 0
Cocklebur plant response rating (cocklebur; [6]): 0
Cocklebur plant response rating (cocklebur; [7]): 0
Cocklebur plant response rating (cocklebur; [8]): 0
Cocklebur plant response rating (cocklebur; [9]): 0
B. signalgrass plant response rating (surinam grass; Postemergence, Rate 250 g/ha, scale 0 to 10, 0 no effect, 10 complete control): 0
B. signalgrass plant response rating (surinam grass; [10]): 0
Plant response rating, B. signalgrass (surinam grass; [11]): 0
Plant response rating, B. signalgrass (surinam grass; [12]): 0
B. signalgrass plant response rating (surinam grass; [6]): 0
B. signalgrass plant response rating (surinam grass; [7]): 2
B. signalgrass plant response rating (surinam grass; [8]): 0
B. signalgrass plant response rating (surinam grass; [9]): 0
Plant response rating, Ducksalad (0 to 10 scale, 0 is no effect, 10 is complete control) (duck salad; [1]): 0
Ducksalad plant response rating (0 to 10 scale, 0 is no effect, 10 is complete control) (duck salad; [2]): 0
Ducksalad plant response rating (duck salad; [3]): 0
Ducksalad plant response rating (duck salad; [4]): 0
Redroot pigweed plant response rating (pigweed; [5]): 0
Plant response rating, Redroot pigweed (pigweed; Preemergence, Rate 62 g/ha): 2
Plant response rating, Redroot pigweed (pigweed; Preemergence, Rate 125 g/ha): 5
Redroot pigweed plant response rating (pigweed; [6]): 10
Redroot pigweed plant response rating (pigweed; [7]): 10
Redroot pigweed plant response rating (pigweed; [8]): 0
Redroot pigweed plant response rating (pigweed; [9]): 0
Corn plant response rating (corn; [5]): 0
Corn plant response rating (corn; [10]): 0
Plant response rating, Corn (corn; [11]): 0
Plant response rating, Corn (corn; [12]): 0
Corn plant response rating (corn; [6]): 0
Corn plant response rating (corn; [7]): 0
Corn plant response rating (corn; [8]): 0
Corn plant response rating (corn; [9]): 0
Sugarbeets plant response rating (sugar beet; [5]): 0
Plant response rating, Sugarbeets (sugar beet; Preemergence, Rate 62 g/ha): 0
Plant response rating, Sugarbeets (sugar beet; Preemergence, Rate 125 g/ha): 0
Sugarbeets plant response rating (sugar beet; [6]): 0
Sugarbeets plant response rating (sugar beet; [7]): 0
Sugarbeets plant response rating (sugar beet; [8]): 0
Sugarbeets plant response rating (sugar beet; [9]): 0
Wild oats plant response rating (wild oat; [5]): 0
Plant response rating, Wild oats (wild oat; Preemergence, Rate 62 g/ha): 0
Plant response rating, Wild oats (wild oat; Preemergence, Rate 125 g/ha): 0
Wild oats plant response rating (wild oat; [6]): 0
Wild oats plant response rating (wild oat; [7]): 0
Wild oats plant response rating (wild oat; [8]): 0
Wild oats plant response rating (wild oat; [9]): 0
Crabgrass plant response rating (crabgrass; [5]): 2
Crabgrass plant response rating (crabgrass; [10]): 2
Plant response rating, Crabgrass (crabgrass; [11]): 0
Plant response rating, Crabgrass (crabgrass; [12]): 0
Crabgrass plant response rating (crabgrass; [6]): 2
Crabgrass plant response rating (crabgrass; [7]): 2
Crabgrass plant response rating (crabgrass; [8]): 0
Crabgrass plant response rating (crabgrass; [9]): 0
Wheat plant response rating (wheat; [5]): 0
Plant response rating, Wheat (wheat; Preemergence, Rate 62 g/ha): 0
Plant response rating, Wheat (wheat; Preemergence, Rate 125 g/ha): 0
Wheat plant response rating (wheat; [6]): 0
Wheat plant response rating (wheat; [7]): 0
Wheat plant response rating (wheat; [8]): 0
Wheat plant response rating (wheat; [9]): 0
Plant response rating, Rice (0 to 10 scale, 0 is no effect, 10 is complete control) (rice; [1]): 0
Rice plant response rating (0 to 10 scale, 0 is no effect, 10 is complete control) (rice; [2]): 0
Rice plant response rating (rice; [3]): 0
Rice plant response rating (rice; [4]): 0
Giant foxtail plant response rating (giant foxtail; [5]): 6
Giant foxtail plant response rating (giant foxtail; [10]): 6
Plant response rating, Giant foxtail (giant foxtail; [11]): 0
Plant response rating, Giant foxtail (giant foxtail; [12]): 0
Giant foxtail plant response rating (giant foxtail; [6]): 3
Giant foxtail plant response rating (giant foxtail; [7]): 10
Giant foxtail plant response rating (giant foxtail; [8]): 0
Giant foxtail plant response rating (giant foxtail; [9]): 0
Blackgrass plant response rating (blackgrass; [5]): 0
Blackgrass plant response rating (blackgrass; [10]): 2
Plant response rating, Blackgrass (blackgrass; [11]): 0
Plant response rating, Blackgrass (blackgrass; [12]): 0
Blackgrass plant response rating (blackgrass; [6]): 2
Blackgrass plant response rating (blackgrass; [7]): 4
Blackgrass plant response rating (blackgrass; [8]): 0
Blackgrass plant response rating (blackgrass; [9]): 0
